Data from patent publication US20240293513A1, “USE OF MAZDUTIDE” (INNOVENT BIOLOGICS (SUZHOU) CO., LTD., priority 2021, published 2024).

Legend:
healthy subjects = assay: Single dose study in healthy subjects (18P-MC-OXAA), safety and tolerability; type: in vivo, human
Description: In another aspect of the present invention, provided is a pharmaceutical composition for reducing a uric acid level in a patient, comprising a compound of formula (I) or a pharmaceutically acceptable salt thereof, and at least one pharmaceutically acceptable carrier.
A single dose study in healthy subjects (18P-MC-OXAA): a single center, double-blind, randomized, placebo-controlled SAD study has been completed (ascending doses of 0.03 mg, 0.1 mg, 0.3 mg, 1.0 mg, 2.5 mg, and 5.0 mg), which mainly assessed the safety, tolerability, and PK/PD profile of mazdutide in healthy subjects.

[1] = test system: patients with obesity or overweight; assay: Safety assessment in patients with obesity or overweight (12-week dose escalation); type: in vivo, human
Description: (§1) Mazdutide and placebo were both administered subcutaneously once weekly. The doses were prepared and administered by study nurses according to the manual instructions of the study drugs. • 1.5 Inclusion criteria
I. Subjects with obesity or overweight meeting all of the following criteria were included in the study: • 1. Aged 18-75 years (inclusive), male or female: • 2. For obesity, BMI≥28.0 kg/m^2: for overweight, 24≤ BMI<28.0 kg/m^2 with at least one of the following: i, increased appetite, intolerable hunger before meals, and increased food consumption: ii, comorbidity with one or more of pre-diabetes (impaired fasting glucose and/or impaired glucose tolerance), hypertension, dyslipidemia (see appendix 4 for reference criteria), and fatty liver (within 6 months before the screening); iii, comorbidity with weight-bearing joint pain: iv, obesity-related dyspnea or obstructive sleep apnea syndrome: • 3. Weight change<5% after at least 12 weeks of diet/exercise weight control at the time of screening
In this study, the enrollment of 36 patients with overweight or obesity having a weight change of less than 5% after at least 12 weeks of diet/exercise control was planned. Three cohorts were included in this double-blind study: cohort 1 (n=12), cohort 2 (n=12), and cohort 3 (n=12). Subjects in each cohort were randomized in a 2:1 ratio into the mazdutide treatment group (n=8) and the placebo group (n=4). The subcutaneous dosing regimens for mazdutide or placebo in cohort 1, cohort 2 and cohort 3, are described below (as shown in FIG. 1):
(§2) Cohort 1: Subjects were administered with a starting dose of 1.0 mg once weekly for 4 weeks. If the treatment was well tolerated*, the dose was adjusted to 2.0 mg, and was administered once weekly for 4 weeks. If the treatment was well tolerated*, the dose was adjusted to 3.0 mg, and was administered once weekly for 4 weeks. (ascending at a rate of 1 mg/4 weeks to the target dose).
Cohort 2: Subjects were administered with a starting dose of 1.5 mg once weekly for 4 weeks. If the treatment was well tolerated*, the dose was adjusted to 3.0 mg, and was administered once weekly for 4 weeks. If the treatment was well tolerated*, the dose was adjusted to 4.5 mg, and was administered once weekly for 4 weeks (ascending at a rate of 1.5 mg/4 weeks to the target dose).
Cohort 3: Treatment in cohort 3 was started when the 4-week treatment at 1.5 mg was completed and well tolerated in the subjects in cohort 2: if 1.5 mg was not tolerated in cohort 2, 2.0 mg and higher doses were not investigated in cohort 3. In this cohort, subjects were administered with a starting dose of 2.0 mg once weekly for 4 weeks. If the treatment was well tolerated*, the dose was adjusted to 4.0 mg, and was administered once weekly for 4 weeks. If the treatment was well tolerated*, the dose was adjusted to 6.0 mg, and was administered once weekly for 4 weeks. (ascending at a rate of 2 mg/4 weeks to the target dose).
For patients with obesity or overweight: By Mar. 15, 2021, 36 subjects were enrolled and 36 were included in the analysis. […] Only 2 patients in cohort 1 had mild urticaria. […] The gastrointestinal events occurred at a higher rate in the treatment group than in the placebo group, which complies with the mechanism of action of the drug.

patients with diabetes = assay: Safety assessment in patients with type 2 diabetes (12-week dose escalation); type: in vivo, human
Description: as §1
(§3) In this study, the enrollment of 42 patients with type 2 diabetes with uncontrolled glycosylated hemoglobin despite at least 2 months of lifestyle intervention or treatment with a stable dose of metformin (≥1000 mg/day or the maximum tolerated dose). Three cohorts were included in this study: cohort 1 (n=14), cohort 2 (n=14), and cohort 3 (n=14). Subjects in each cohort were randomized in an 8:4:2 ratio into the mazdutide treatment group (n=8), the placebo group (n=4), and the dulaglutide 1.5 mg treatment group (n=2). In cohorts 1, 2, and 3, the active control drug, dulaglutide, was administered at 1.5 mg QW for 12 weeks, and the dosing regimens for mazdutide and placebo are described below:
as §2
(§4) Cohort 2: Subjects were administered with a starting dose of 1.5 mg once weekly for 4 weeks.
If the treatment was well tolerated*, the dose was adjusted to 3.0 mg, and was administered once weekly for 4 weeks. If 3.0 mg was not well tolerated but still met the tolerance criteria, the next dose was investigated in cohort 2 (backup 1): if the dose was well tolerated, the study proceeded to 4.5 mg. The treatment was given once weekly for 4 weeks, if 4.5 mg was not well tolerated but still met the tolerance criteria, the next dose was investigated in cohort 2 (backup 2). (ascending at a rate of 1.5 mg/4 weeks to the target dose).
Cohort 2 (backup 2): If 4.5 mg was not tolerated, the treatment should be discontinued for 1 week and resumed at the dose of 3.75 mg for 2 weeks until the end of study. […]

[2] = Stability of the drug substance; type: physicochemical; conditions: ≤−20° C.
[3] = Solubility of the investigational product; type: physicochemical; conditions: 20 mM tris(hydroxymethyl)aminomethane solutions and 150 mM NaCl solutions with pH 8.0
uric acid = assay: Change in uric acid from baseline in subjects with type 2 diabetes; type: in vivo, human; conditions: 1.5 mg QW for 12 weeks, day 85 post-dose vs baseline, N = 6
Description: FIG. 3 illustrates the change in uric acid from baseline after administration in subjects with diabetes.
as §3, §2, §4
If the treatment was well tolerated*, the dose was adjusted to 3.0 mg, and was administered once weekly for 4 weeks. […]

Molecule: CC(C)C[C@H](NC(=O)[C@H](CC(C)C)NC(=O)[C@H](Cc1c[nH]c2ccccc12)NC(=O)[C@H](CCC(=O)O)NC(=O)[C@@H](NC(=O)[C@H](Cc1ccccc1)NC(=O)[C@H](CCC(=O)O)NC(=O)[C@H](CCCCNC(=O)COCCOCCNC(=O)COCCOCCNC(=O)CC[C@H](NC(=O)CCCCCCCCCCCCCCCCCCC(=O)O)C(=O)O)NC(=O)[C@H](C)NC(=O)[C@H](CCCCN)NC(=O)[C@H](CCCCN)NC(=O)[C@H](CCC(=O)O)NC(=O)[C@H](CC(=O)O)NC(=O)[C@H](CC(C)C)NC(=O)[C@H](Cc1ccc(O)cc1)NC(=O)[C@H](CCCCN)NC(=O)[C@H](CO)NC(=O)[C@H](Cc1ccc(O)cc1)NC(=O)[C@H](CC(=O)O)NC(=O)[C@H](CO)NC(=O)[C@@H](NC(=O)[C@H](Cc1ccccc1)NC(=O)[C@@H](NC(=O)CNC(=O)[C@H](CCC(N)=O)NC(=O)C(C)(C)NC(=O)[C@@H](N)Cc1c[nH]cn1)[C@@H](C)O)[C@@H](C)O)C(C)C)C(=O)N[C@@H](CCC(=O)O)C(=O)NCC(=O)NCC(=O)N1CCC[C@H]1C(=O)N[C@@H](CO)C(=O)N[C@@H](CO)C(=O)NCC(N)=O [mazdutide]
- tolerability (healthy subjects; healthy subjects, dose ascended to 2.5 mg): tolerated
- subjects with gastrointestinal-related AEs (mainly nausea and vomiting) (healthy subjects; healthy subjects, dose ascended to 5 mg): 6 subjects
- maximum tolerated dose (MTD) for single-dose administration (healthy subjects; healthy subjects, single ascending doses 0.03-5.0 mg): 2.5 mg
- safety and tolerability (healthy subjects; single-dose and multi-dose escalation studies in healthy populations): good safety and tolerability
- SAEs [1]: no SAEs
- acute pancreatitis [1]: no acute pancreatitis
- discontinuation or withdrawal due to AEs [1]: no discontinuation or withdrawal due to AEs
- dose escalation termination-related AEs [1]: no dose escalation termination-related AEs
- hypoglycemia events [1]: no hypoglycemia events
- severe adverse events [1]: no severe adverse events
- patients with mild urticaria ([1]; cohort 1 (1 mg-2 mg-3 mg)): 2 patients
- overall safety and tolerance ([1]; sc once weekly, 12 weeks): good overall safety and tolerance
- anorexia rate of occurrence ([1]; treatment group): 29.2%
- diarrhea rate of occurrence ([1]; treatment group): 25%
- nausea rate of occurrence ([1]; treatment group): 16.7%
- Gastrointestinal adverse events rate ([1]; treatment group, 15/24 cases): 62.5%
- average heart rate ([1]; versus placebo group): increase in average heart rate over the placebo group
- acute pancreatitis, severe hypoglycemia, allergic reaction or injection site reaction (patients with diabetes): no acute pancreatitis, severe hypoglycemia, allergic reaction or injection site reaction
- dose escalation termination-related AEs (patients with diabetes): no dose escalation termination-related AEs
- overall safety and tolerance (patients with diabetes; sc once weekly, 12 weeks): good overall safety and tolerance
- Stability [2]: The drug substance is stable at ≤−20 °C
- solubility [3]: ≥ 10000 µg/mL

Molecule: Dulaglutide
- Uric acid Mean of change (uric acid): 16.67 µmol/L
